The experiment concerns the target T1, toll-like receptor 9 (TLR9) (Homo sapiens, UniProt Q9NR96).
T1 construct: we isolated PBMCs from venous blood collected from healthy donors using density gradient centrifugation; endogenous in cells; host or cells: primary human PBMC (plasmacytoid dendritic cells) from healthy donors
T1 sequence (Q9NR96 26-1032): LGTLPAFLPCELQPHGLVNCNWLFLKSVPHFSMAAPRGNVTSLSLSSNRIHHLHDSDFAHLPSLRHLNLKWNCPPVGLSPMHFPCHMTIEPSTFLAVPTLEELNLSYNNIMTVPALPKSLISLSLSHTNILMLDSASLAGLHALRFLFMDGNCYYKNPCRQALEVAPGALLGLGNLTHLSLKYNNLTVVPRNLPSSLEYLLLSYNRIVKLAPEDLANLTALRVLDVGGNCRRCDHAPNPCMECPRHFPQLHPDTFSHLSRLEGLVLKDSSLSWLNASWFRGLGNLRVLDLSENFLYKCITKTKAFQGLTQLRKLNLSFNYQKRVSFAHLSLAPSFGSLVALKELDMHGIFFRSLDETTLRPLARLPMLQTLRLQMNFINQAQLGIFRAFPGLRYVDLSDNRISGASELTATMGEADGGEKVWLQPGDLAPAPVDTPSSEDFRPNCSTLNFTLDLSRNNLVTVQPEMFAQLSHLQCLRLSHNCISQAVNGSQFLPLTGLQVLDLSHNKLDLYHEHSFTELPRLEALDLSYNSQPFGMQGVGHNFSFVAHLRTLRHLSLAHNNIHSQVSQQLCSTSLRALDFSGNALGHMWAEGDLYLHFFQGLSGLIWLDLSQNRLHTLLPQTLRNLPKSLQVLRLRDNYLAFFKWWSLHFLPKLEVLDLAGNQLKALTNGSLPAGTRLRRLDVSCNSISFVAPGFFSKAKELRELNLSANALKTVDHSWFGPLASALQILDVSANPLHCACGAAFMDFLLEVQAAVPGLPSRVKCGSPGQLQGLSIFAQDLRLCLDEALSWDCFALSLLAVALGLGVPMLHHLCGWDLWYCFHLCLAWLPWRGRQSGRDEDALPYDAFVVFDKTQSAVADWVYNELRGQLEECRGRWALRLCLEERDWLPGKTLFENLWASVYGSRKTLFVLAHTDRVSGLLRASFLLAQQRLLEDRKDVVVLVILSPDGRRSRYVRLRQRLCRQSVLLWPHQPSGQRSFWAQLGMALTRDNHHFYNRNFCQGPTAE
Put plainly: Screening of TLR9 antagonistic activity: IFN-alpha production from human PBMC in response to CpGA (ELISA). It counts as cell-based. Particulars: TLR9 antagonism; Table 2 does not say which of the three TLR9 assays. The source says:
The principle of the screening assay was designed based on the production of Type I interferons (IFN-alpha) from human PBMCs, which results almost exclusively from TLR9 triggering on the PDCs by type A CpG oligonucleotides (CpGA). PBMCs were isolated from venous blood collected from healthy donors using density gradient centrifugation.
A medium throughput biological assay based on toll-like receptor 9 activation has been designed in primary human immune cells to screen the synthesized small molecules with general formula (I) for toll-like receptor 9 (TLR9) antagonism. Among the immune cell subsets circulating in the peripheral blood, two cell subsets plasmacytoid dendritic cells (PDCs) and B lymphocytes has significant expression of TLR9. Plasmacytoid dendritic cells are capable of producing type I interferons (e.g. IFN-alpha) in response to TLR9 ligands. Type A and type B unmethylated cytosine-guanine rich DNA oligonucleotides (CpG oligonucleotides) are the bonafide ligands for TLR9.
In the screening assay we isolated PBMCs from venous blood collected from healthy donors using density gradient centrifugation. PBMCs were cultured the at 2-3*10^5 cells/200 ul/well in a 96 well plate. TLR9 agonist CpGA was added at 1 uM in presence of escalating doses of the synthesized small molecules (0 uM, 0.1 uM, 1 uM, 5 uM, 10 uM and 20 uM). The supernatants was collected after overnight culture from the culture wells and looked for IFN-alpha using enzyme linked immunosorbent assay (ELISA). […] For the biological validation of TLR9 antagonism the bona fide TLR9 agonist CpG oligonucleotides were used.
As for `CCN1CCN(CCCn2cnc3c(N4CCN(CC)CC4)nc(NCc4ccc(N(CC)CC)cc4)nc32)CC1` [Compound 7, N-(4-(diethylamino)benzyl)-6-(4-ethylpiperazin-1-yl)-9-(3-(4-ethylpiperazin-1-yl)propyl)-9H-purin-2-amine], the IC50 was 0.438 µM.

In the case of `CCN1CCN(CCCn2cnc3c(N4CCN(CC)CC4)nc(N4CCCC4)nc32)CC1` [Compound 9], the concentration for half-maximal inhibition (IC50) was 1.83 µM.

As to `CN(C)Cc1ccc(C(=O)Nc2nc(N3CCN(C4CCCC4)CC3)c3ncn(CCCN4CCCC4)c3n2)cc1` [Compound 31, N-(6-(4-cyclopentylpiperazin-1-yl)-9-(3-(pyrrolidin-1-yl)propyl)-9H-purin-2-yl)-4-((dimethylamino)methyl)benzamide], 0.005 µM corresponded to half-maximal inhibition (IC50).

On to `Nc1nc(N2CCN(C3CCCC3)CC2)c2ncn(CCCN3CCCC3)c2n1` [Compound 29, 6-(4-cyclopentylpiperazin-1-yl)-9-(3-(pyrrolidin-1-yl)propyl)-9H-purin-2-amine], for which inhibition was half-maximal at 0.122 µM (IC50).

In turn, `CCN1CCN(CCCn2cnc3c(N4CCN(CC)CC4)nc(NC(=O)c4ccccc4)nc32)CC1` [Compound 10, N-(6-(4-ethylpiperazin-1-yl)-9-(3-(4-ethylpiperazin-1-yl)propyl)-9H-purin-2-yl)benzamide] came in with a half-maximal inhibitory concentration (IC50) of 0.339 µM.

As to `CCN1CCN(CCCn2cnc3c(N4CCN(C5CCCC5)CC4)nc(NCc4ccc(OC)cc4)nc32)CC1` [Compound 26, 6-(4-cyclopentylpiperazin-1-yl)-9-(3-(4-ethylpiperazin-1-yl)propyl)-N-(4-methoxybenzyl)-9H-purin-2-amine], the IC50 stood at 0.12 µM.

Compound `CCN1CCN(CCCn2cnc3c(N4CCN(CC)CC4)nc(N)nc32)CC1` [Compound 4, 6-(4-ethylpiperazin-1-yl)-9-(3-(4-ethylpiperazin-1-yl)propyl)-9H-purin-2-amine] registered a half-inhibitory concentration (IC50) of 0.188 µM.

In turn, `CCN1CCN(CCCn2cnc3c(N4CCN(C(=O)C5CCCC5)CC4)nc(NCc4ccc(N(CC)CC)cc4)nc32)CC1` [Compound 38, Cyclopentyl(4-(2-(4-(diethylamino)benzylamino)-9-(3-(4-ethylpiperazin-1-yl)propyl)-9H-purin-6-yl)piperazin-1-yl)methanone] gave a concentration for half-maximal inhibition (IC50) of 8.8 µM.

Consider `COc1ccc(CNc2nc(N3CCN(C4CCCC4)CC3)c3ncn(CCCN4CCCC4)c3n2)cc1` [Compound 30, 6-(4-cyclopentylpiperazin-1-yl)-N-(4-methoxybenzyl)-9-(3-(pyrrolidin-1-yl)propyl)-9H-purin-2-amine], for which the half-maximal inhibitory concentration (IC50) was 0.241 µM.

`CCN1CCN(CCCn2cnc3c(N4CCN(C5CCCC5)CC4)nc(NCc4ccc(N(CC)CC)cc4)nc32)CC1` [Compound 24] returned a half-inhibitory concentration (IC50) of 0.145 µM.

`Fc1ccc(CNc2nc(N3CCN(C4CCCC4)CC3)c3ncn(CCCN4CCCC4)c3n2)cc1` [Compound 32, 6-(4-cyclopentylpiperazin-1-yl)-N-(4-fluorobenzyl)-9-(3-(pyrrolidin-1-yl)propyl)-9H-purin-2-amine]: 0.1 µM corresponded to half-maximal inhibition (IC50). The IC50 values of the last two compounds are within 1.5-fold of each other.

Regarding `CCN1CCN(c2nc(NCc3ccc(OC)cc3)nc3c2ncn3CCCN2CCCC2)CC1` [Compound 34, 6-(4-ethylpiperazin-1-yl)-N-(4-methoxybenzyl)-9-(3-(pyrrolidin-1-yl)propyl)-9H-purin-2-amine], half-maximal inhibition (IC50) required 0.08 µM.

Compound “Iso-butyl(1-(6-(4-ethylpiperazin-1-yl)-9-(3-(4-ethylpiperazin-1-yl)propyl)-9H-purin-2-yl)amino)-1-oxo-3-phenylpropan-2-yl)carbamate [Compound 15]” came in with an IC50 of 0.47 µM.

Regarding `CCN1CCN(CCCn2cnc3c(N4CCN(C5CCCC5)CC4)nc(NCc4ccc(F)cc4)nc32)CC1` [Compound 25, 6-(4-cyclopentylpiperazin-1-yl)-9-(3-(4-ethylpiperazin-1-yl)propyl)-N-(4-fluorobenzyl)-9H-purin-2-amine], the concentration for half-maximal inhibition (IC50) turned out to be 0.254 µM. Compared with the last compound, the IC50 is about 1.9-fold lower.

`CCN1CCN(CCCn2cnc3c(N4CCN(CC)CC4)nc(NCc4ccccc4)nc32)CC1` [Compound 8, N-benzyl-6-(4-ethylpiperazin-1-yl)-9-(3-(4-ethylpiperazin-1-yl)propyl)-9H-purin-2-amine] returned an IC50 of 0.14 µM.

In turn, `CCN1CCN(CCCn2cnc3c(N4CCN(CC)CC4)nc(NCc4ccc(OC)cc4)nc32)CC1` [Compound 5, 6-(4-ethylpiperazin-1-yl)-9-(3-(4-ethylpiperazin-1-yl)propyl)-N-(4-methoxybenzyl)-9H-purin-2-amine] showed an IC50 of 0.203 µM.

In turn, `CCN1CCN(CCCn2cnc3c(N4CCN(CC)CC4)nc(NC(=O)C4CCCN4)nc32)CC1` (stereo not shown) [Compound 12, N-(6-(4-ethylpiperazin-1-yl)-9-(3-(4-ethylpiperazin-1-yl)propyl)-9H-purin-2-yl) pyrrolidine-2-carboxamide] displayed an IC50 of 0.378 µM.

As for `CCN1CCN(CCCn2cnc3c(N4CCN(CC)CC4)nc(NCc4ccc(F)cc4)nc32)CC1` [Compound 6, 6-(4-ethylpiperazin-1-yl)-9-(3-(4-ethylpiperazin-1-yl)propyl)-N-(4-fluorobenzyl)-9H-purin-2-amine], half-maximal inhibition (IC50) required 0.47 µM.

`CCN1CCN(CCCn2cnc3c(N4CCN(C5CCCC5)CC4)nc(NC(=O)c4ccc(CN(C)C)cc4)nc32)CC1` [Compound 27, N-(6-(4-cyclopentylpiperazin-1-yl)-9-(3-(4-ethylpiperazin-1-yl)propyl)-9H-purin-2-yl)-4-((dimethylamino)methyl)benzamide]: the IC50 came to 0.056 µM.

Values taken from US11168084B2, “Purine based compounds as toll-like receptor 9 antagonist” (COUNCIL OF SCIENTIFIC & INDUSTRIAL RESEARCH, priority 2017, dated 2021).
